Source: publication PMC10708468, “New Dipyrroloquinones from a Plant-Derived Endophytic Fungus Talaromyces sp” (Molecules, 2023)
Entries after “also recorded” stand apart in the source; their conditions may differ. Read-outs that look alike come from different tables or passages of the source.

Key:
[1] = test system: liver cancer cells Hep G2; assay: MTT cytotoxic activity assay, Hep G2; type: cell-based; conditions: Homo sapiens
Protocol: (§1) The 3-(4,5-dimethyl-2-thiazolyl)-2,5-diphenyl-2-h-tetrazole ammonium bromide (MTT) experiment was applied to test the cytotoxic activity for 1–6 against human lung cancer cells A549 and liver cancer cells Hep G2. Cells in RPMI-1640 medium (10% FBS, 0.4% penicillin–streptomycin solution) were digested with trypsin and diluted to the concentration of 1 × 10^4 cells/mL. The cell suspensions were diluted and added into a 96-well microtiter plate with 200 µL per well. The plate was then incubated in a CO2 incubator at 37 °C. Compounds 1–6 were added to the plate wells after 24 h and incubated for 72 h. Adriamycin (ADM) was used as the positive control, and DMSO as the blank control. The MTT solution was added after 72 h incubation, followed by incubation for 4 h. The cells were successively disrupted with 200 µL of DMSO for 10 min after the supernatant liquid was removed. The absorption was measured at 570 nm.

[2] = test system: human lung cancer cells A549; assay: MTT cytotoxic activity assay, A549; type: cell-based
Protocol: as §1

[3] = test system: LPS-induced NO production in macrophage RAW264.7 cells; assay: Inhibition of LPS-induced NO production (Griess reaction); type: cell-based; conditions: Mus musculus; for IC50: macrophage RAW264.7 cells, given as IC50, read-out: IC50 inhibition of LPS-stimulated NO production
Protocol: (§2) RAW264.7 cells were cultured in DMEM with 10% fetal bovine serum (FBS) and 1% penicillin-streptomycin at 37 °C in 5% CO2. The MTT assay was used to evaluate cell viability. RAW264.7 cells were seeded on 96-well plates at 5 × 10^5 cells/well [26]. After incubation with compounds 1–6 at five concentrations ([…]) for 24 h, cells were treated with MTT (5 mg/mL) at 37 °C for 4 h. Then, the supernatant was removed and the […] was crystalised with DMSO. The absorbance was measured at 570 nm. The Griess reaction was applied to measure the accumulation of NO2^− in culture supernatant. RAW264.7 cells were treated with the compounds for 1 h then with the presence of LPS (1 μg/mL) for 24 h. The culture supernatant fluids (50 µL) and Griess reagent (50 µL) were mixed and incubated at room temperature. The absorbance was read at 570 nm after 15 min.

[4] = test system: RAW264.7 cells; assay: MTT cell viability of RAW264.7 cells (non-toxic concentrations); type: cell-based; conditions: 24 h
Protocol: as §2

[5] = test system: PI3K-Akt-mTOR signalling pathway; assay: Western blot analysis of PI3K-Akt-mTOR signalling pathway in A549 cells; type: cell-based, human; conditions: 0.2 and 0.4 μM, 24 h
Protocol: Considering the significant cytotoxicities of penicillixanthone A (4), we evaluated its plausible molecular mechanism in A549 tumour cells using western blot analysis in Figure 5. Compound 4 (0.2 and 0.4 µM) was firstly pretreated for 24 h to test the PI3K expression.
Figure 5 The protein expression of the PI3K-Akt-mTOR signalling pathway of 4 was evaluated by western blot analysis. A549 cells were treated with 4 (0.2 and 0.4 μM) for 24 h, and the expression levels of PI3K, Akt and mTOR were tested by the responsible antibodies. […] Data are represented as the mean ± SD, n = 3, *** p < 0.01 vs. Control.

[6] = HepG2 cells, MTT, 72 h incubation, read-out: IC50 cytotoxicity HepG2
[7] = A549 cells, MTT, 72 h incubation, read-out: IC50 cytotoxicity A549
[8] = LPS (1 μg/mL)-induced NO production in RAW264.7 cells, 24 h, Griess reaction, read-out: EC50

Row | Compound | IC50 [1, 6] [µM] | IC50 [2, 7] [µM] | EC50 [3, 8] [µM] | IC50 [3] [µM] | Non-Toxic Concentrations [4] [µM] | IC50 ([1]; HepG2, Hep G2 cell line, read-out: IC50 cytotoxic activity Hep G2) [µM] | EC50 ([3]; RAW264.7, 24 h) [µM] | phospho-PI3K expression [5] | phospho-mTOR/Akt expression [5] | expression of PI3K, Akt and mTOR (PI3K-Akt-mTOR signalling pathway) ([5]; p < 0.01 vs. Control) | IC50 ([2]; A549 cell line, read-out: IC50 cytotoxic activity A549) [µM]
1 | COc1cccc2c1C(=O)c1c(O)c3c(c(O)c1C2=O)C[C@@](O)(C(=O)CO)C[C@@H]3O[C@H]1C[C@H](N)[C@H](O)[C@H](C)O1 [adriamycin, Adriamycin, reference compound] | 1.2 | 3.5 |  |  |  |  |  |  |  |  | 
2 | CC(C)C(=O)c1cc2c([nH]1)C(=O)c1cc([C@H](O)C(C)C)[nH]c1C2=O [Compound 1, talaroterreusinone A] | 111 | 133 | 20.3 | 20.3 | 3.04 to 304.87 |  |  |  |  |  | 
3 | CO[C@H](c1cc2c([nH]1)C(=O)c1cc([C@H](OC)C(C)C)[nH]c1C2=O)C(C)C [Compound 3, terreusinone D] | 57.4 | 62.7 | 20.6 | 20.6 | 2.79 to 279.32 |  |  |  |  |  | 
4 | CO[C@@H](c1cc2c([nH]1)C(=O)c1cc([C@H](O)C(C)C)[nH]c1C2=O)C(C)C [Compound 2, Talaroterreusinone B] | 84.7 | 98.8 | 30.7 | 30.7 | 2.90 to 190.69 |  |  |  |  |  | 
5 | Oc1ccc(/C=C/c2cc(O)cc(O)c2)cc1 [resveratrol, reference compound] |  |  | 1.6 |  | 0.43 to 109.52 |  |  |  |  |  | 
6 | C/C1=C\Cc2c(cc(O)c3c2C[C@@H](C)OC3=O)OC(C)(C)[C@@H](O)CC/C(C)=C/CC1 [Compound 6, chrysomutanin] | 43.9 | 42.5 | 142 |  | 2.41 to 241.54 |  |  |  |  |  | 
7 | CC(O)Cc1cc(O)c2c(c1)C(=O)c1cc(O)cc(O)c1C2=O (centres unmarked) [Compound 5, isorhodoptilometrin] | > 150 | > 150 | 121 |  | 3.18 to 318.47 |  |  |  |  |  | 
8 | COC(=O)[C@]12Oc3ccc(-c4ccc(O)c5c4O[C@@]4(C(=O)OC)C(=C(O)C[C@@H](C)[C@@H]4O)C5=O)c(O)c3C(=O)C1=C(O)C[C@@H](C)[C@@H]2O [Compound 4, penicillixanthone A] | 0.212 | 0.117 |  |  |  | 0.117 | 1 | decrease the phospho-PI3K expression | significantly suppressed | inhibiting the PI3K-Akt-mTOR signalling pathway; also recorded: inhibited the expression of PI3K, Akt and mTOR | 0.212
